Assay results taken from PubChem BioAssay AID328 (DTP/NCI, 2004).
Where “and” joins values, the source holds several entries; their conditions need not be identical. Identical values can stand only once. Toxic doses and inconclusive results are not listed.

Test system: BDF1 mice, P388 leukemia ip, median survival T/C
Assay: NCI In Vivo Anticancer Drug Screen. Data for tumor model P388 Leukemia (intraperitoneal) in B6D2F1 (BDF1) mice
Conditions: endpoint: median survival time, higher = longer survival
How it was run: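 Vehicle-dosed animals serve as the reference; survival of compound-dosed, tumour-implanted mice is divided by it.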

[1] = dose: 25.0 mg/kg/injection, schedule: Q04DX003 (ip), vehicle: other
[2] = dose: 50.0 mg/kg/injection, schedule: Q01DX009 (ip), vehicle: saline with Tween-80
[3] = dose: 50.0 mg/kg/injection, schedule: Q04DX003 (ip), vehicle: other
[4] = dose: 50.0 mg/kg/injection, schedule: Q04DX003 (ip), vehicle: saline
[5] = dose: 100.0 mg/kg/injection, schedule: Q04DX003 (ip), vehicle: saline
[6] = dose: 200.0 mg/kg/injection, schedule: Q04DX003 (ip), vehicle: saline
[7] = dose: 25.0 mg/kg/injection, schedule: Q01DX009 (ip), vehicle: saline with Tween-80
[8] = dose: 25.0 mg/kg/injection, schedule: Q04DX003 (ip), vehicle: saline with Tween-80
[9] = dose: 50.0 mg/kg/injection, schedule: Q04DX003 (ip), vehicle: saline with Tween-80
[10] = dose: 100.0 mg/kg/injection, schedule: Q01DX009 (ip), vehicle: saline with Tween-80
[11] = dose: 100.0 mg/kg/injection, schedule: Q04DX003 (ip), vehicle: saline with Tween-80
[12] = dose: 200.0 mg/kg/injection, schedule: Q01DX009 (ip), vehicle: saline with Tween-80
[13] = dose: 200.0 mg/kg/injection, schedule: Q04DX003 (ip), vehicle: saline with Tween-80
[14] = dose: 100.0 mg/kg/injection, schedule: Q04DX003 (ip), vehicle: Klucel (hydroxypropylcellulose) (HPC)
[15] = dose: 200.0 mg/kg/injection, schedule: Q04DX003 (ip), vehicle: Klucel (hydroxypropylcellulose) (HPC)
[16] = dose: 12.5 mg/kg/injection, schedule: Q01DX009 (ip), vehicle: saline with Tween-80
[17] = dose: 100.0 mg/kg/injection, schedule: Q04DX002 (ip), vehicle: saline with Tween-80
[18] = dose: 200.0 mg/kg/injection, schedule: Q04DX002 (ip), vehicle: saline with Tween-80
[19] = dose: 400.0 mg/kg/injection, schedule: Q04DX002 (ip), vehicle: saline with Tween-80

For O=C1NC(=O)C([N+](=O)[O-])=C(O)C1=O, the T/C (dose: 1.0 mg/kg/injection, schedule: Q01DX009 (ip), vehicle: saline with Tween-80) was 110 % of control, the T/C (dose: 4.0 mg/kg/injection, schedule: Q01DX009 (ip), vehicle: saline with Tween-80) was 105 % of control and the T/C (dose: 8.0 mg/kg/injection, schedule: Q01DX009 (ip), vehicle: saline with Tween-80) was 100 % of control. For the same compound, the T/C (dose: 9.0 mg/kg/injection, schedule: Q01DX009 (ip), vehicle: saline with Tween-80) was 150 % of control, the T/C (dose: 15.0 mg/kg/injection, schedule: Q01DX009 (ip), vehicle: saline with Tween-80) was 95 % of control and the T/C (dose: 18.0 mg/kg/injection, schedule: Q01DX009 (ip), vehicle: saline with Tween-80) was 110 % of control. For the same compound, the T/C [1] was 104 % of control, the T/C (dose: 35.0 mg/kg/injection, schedule: Q01DX009 (ip), vehicle: saline with Tween-80) was 100 % of control and 120 % of control and the T/C (dose: 35.0 mg/kg/injection, schedule: Q04DX003 (ip), vehicle: other) was 104 % of control. The T/C [2] was 90 % of control and 95 % of control, the T/C [3] was 104 % of control and the T/C [4] was 118 % of control. The T/C (dose: 75.0 mg/kg/injection, schedule: Q01DX009 (ip), vehicle: saline with Tween-80) was 105 % of control, the T/C (dose: 75.0 mg/kg/injection, schedule: Q04DX003 (ip), vehicle: other) was 100 % of control and the T/C [5] was 109 % of control. For the same compound, the T/C (dose: 150.0 mg/kg/injection, schedule: Q01DX009 (ip), vehicle: saline with Tween-80) was 95 % of control, the T/C [6] was 104 % of control and 122 % of control and the T/C (dose: 300.0 mg/kg/injection, schedule: Q01DX009 (ip), vehicle: saline with Tween-80) was 90 % of control.

CC1=C(C#N)C(C)(C)C(C#N)=C(C)N1C was tested, and the T/C (dose: 25.0 mg/kg/injection, schedule: Q01DX009 (ip), vehicle: distilled water + Tween-80) was 88 % of control, the T/C (dose: 50.0 mg/kg/injection, schedule: Q01DX009 (ip), vehicle: distilled water + Tween-80) was 100 % of control and the T/C (dose: 100.0 mg/kg/injection, schedule: Q01DX009 (ip), vehicle: distilled water + Tween-80) was 104 % of control.

With O=C1C=CCCCC1 the T/C [7] was 109 % of control, the T/C [8] was 103 % of control and the T/C [2] was 109 % of control and 112 % of control. The T/C [9] was 88 % of control, the T/C [10] was 104 % of control and the T/C [11] was 100 % of control.

Nc1nc(CNc2ccccc2)nc(Nc2ccccc2)n1 was tested, and the T/C (dose: 50.0 mg/kg/injection, schedule: Q04DX003 (ip), vehicle: saline sonified) was 100 % of control, the T/C (dose: 100.0 mg/kg/injection, schedule: Q04DX003 (ip), vehicle: saline sonified) was 100 % of control and the T/C (dose: 200.0 mg/kg/injection, schedule: Q04DX003 (ip), vehicle: saline sonified) was 105 % of control.

For C(=NC12CC3CC(CC(C3)C1)C2)c1ccccc1, the T/C (dose: 25.0 mg/kg/injection, schedule: Q04DX003 (ip), vehicle: saline) was 105 % of control, the T/C [4] was 99 % of control and the T/C [5] was 107 % of control. The T/C [6] was 105 % of control.

With COc1cc(Cl)c(CC(=O)c2c[nH]c3ccccc23)cc1OC the T/C [2] was 103 % of control and the T/C [12] was 99 % of control.

For CC(=O)O[C@H]1CC[C@H]2[C@@H]3CCC4=CC(=O)CC[C@]4(C)[C@H]3[C@H](OC(C)=O)C[C@]12C, the T/C [11] was 100 % of control, the T/C [13] was 95 % of control and the T/C (dose: 400.0 mg/kg/injection, schedule: Q04DX003 (ip), vehicle: saline with Tween-80) was 109 % of control.

In the case of CC(=O)C1(O)Cc2c(O)c3c(c(O)c2C(O)C1)C(=O)c1c(OC(C)C)cccc1C3=O (stereo unspecified), the T/C (dose: 3.13 mg/kg/injection, schedule: Q04DX003 (ip), vehicle: other) is reported as 108 % of control, the T/C (dose: 3.13 mg/kg/injection, schedule: Q04DX009 (ip), vehicle: other) is reported as 101 % of control and the T/C (dose: 6.25 mg/kg/injection, schedule: Q04DX003 (ip), vehicle: other) is reported as 105 % of control. The T/C (dose: 6.25 mg/kg/injection, schedule: Q04DX009 (ip), vehicle: other) was 92 % of control, the T/C (dose: 12.5 mg/kg/injection, schedule: Q04DX003 (ip), vehicle: other) was 100 % of control and the T/C (dose: 12.5 mg/kg/injection, schedule: Q04DX009 (ip), vehicle: other) was 110 % of control. For the same compound, the T/C [1] was 105 % of control, the T/C (dose: 25.0 mg/kg/injection, schedule: Q04DX009 (ip), vehicle: other) was 110 % of control and the T/C [3] was 101 % of control. The T/C (dose: 50.0 mg/kg/injection, schedule: Q04DX009 (ip), vehicle: other) was 99 % of control.

For N#Cc1c(NN)n(C2OC(CO)C(O)C2O)c2ncnc(N)c12 (stereo unspecified), the T/C [4] was 100 % of control and the T/C (dose: 83.0 mg/kg/injection, schedule: Q04DX003 (ip), vehicle: saline) was 100 % of control.

In the case of Cc1ccc(S(=O)(=O)OC2CCC(C(C)(C)C)CC2Cl)cc1 (stereo unspecified), the T/C (dose: 100.0 mg/kg/injection, schedule: Q01DX009 (ip), vehicle: Klucel (hydroxypropylcellulose) (HPC)) is reported as 105 % of control, the T/C [14] is reported as 100 % of control and the T/C (dose: 200.0 mg/kg/injection, schedule: Q01DX009 (ip), vehicle: Klucel (hydroxypropylcellulose) (HPC)) is reported as 110 % of control. For the same compound, the T/C [15] was 86 % of control and the T/C (dose: 400.0 mg/kg/injection, schedule: Q01DX009 (ip), vehicle: Klucel (hydroxypropylcellulose) (HPC)) was 95 % of control.

In the case of CC(=O)Nc1nc(Cl)c([N+](=O)[O-])c(SCc2ccccc2)n1, the T/C [16] is reported as 94 % of control, the T/C [7] is reported as 98 % of control and the T/C [8] is reported as 116 % of control. For the same compound, the T/C [2] was 107 % of control, the T/C [9] was 114 % of control and the T/C [10] was 96 % of control. For the same compound, the T/C [11] was 114 % of control and the T/C [13] was 96 % of control.

In the case of CCC(=O)O[C@H]1CC[C@H]2[C@@H]3CC(=C(Br)Br)C4=CC(=O)CC[C@]4(C)[C@H]3CC[C@]12C, the T/C [16] is reported as 91 % of control, the T/C [7] is reported as 100 % of control and the T/C [2] is reported as 86 % of control and 90 % of control.

CC1(C)C2CC=C(C[P+](c3ccccc3)(c3ccccc3)c3ccccc3)C1C2 (stereo unspecified) was tested, and the T/C (dose: 3.3 mg/kg/injection, schedule: Q01DX009 (ip), vehicle: saline sonified) was 120 % of control.

With CCC(=O)c1cc(O)ccc1O the T/C (dose: 50.0 mg/kg/injection, schedule: Q01DX009 (ip), vehicle: other) was 106 % of control and the T/C (dose: 100.0 mg/kg/injection, schedule: Q01DX009 (ip), vehicle: other) was 97 % of control.

COc1ccc(CC(C(=O)O)C(Cc2ccc(OC)c(OC)c2)C(=O)O)cc1OC (stereo unspecified) was tested, and the T/C [14] was 109 % of control, the T/C [15] was 100 % of control and the T/C (dose: 400.0 mg/kg/injection, schedule: Q04DX003 (ip), vehicle: Klucel (hydroxypropylcellulose) (HPC)) was 109 % of control.

In the case of NNc1nccnc1Cl, the T/C [5] is reported as 105 % of control and the T/C [6] is reported as 103 % of control.

In the case of CCCCCCC(O)CCCCCCCCCCC(=O)O (stereo unspecified), the T/C [10] is reported as 95 % of control, the T/C [12] is reported as 95 % of control and the T/C (dose: 400.0 mg/kg/injection, schedule: Q01DX009 (ip), vehicle: saline with Tween-80) is reported as 100 % of control.

N/C(=N\N=C\c1ccc(-c2ccccc2)cc1)N[N+](=O)[O-] was tested, and the T/C (dose: 25.0 mg/kg/injection, schedule: Q01DX010 (ip), vehicle: carboxymethylcellulose (CMC)) was 100 % of control, the T/C (dose: 50.0 mg/kg/injection, schedule: Q01DX010 (ip), vehicle: carboxymethylcellulose (CMC)) was 100 % of control and the T/C (dose: 100.0 mg/kg/injection, schedule: Q01DX010 (ip), vehicle: carboxymethylcellulose (CMC)) was 100 % of control. For the same compound, the T/C (dose: 200.0 mg/kg/injection, schedule: Q01DX010 (ip), vehicle: carboxymethylcellulose (CMC)) was 100 % of control.

Clc1ccccc1N1CN(c2ccccc2Cl)CN(c2ccccc2Cl)C1 was tested, and the T/C [2] was 104 % of control, the T/C [10] was 100 % of control and the T/C [12] was 100 % of control.

For COC(=O)C1c2cc3c(c(O)c2CCC1(C)O)C(=O)c1c(O)cc2c(c1C3=O)OC1OC2(C)C(O)C(N(C)C)C1O (stereo unspecified), the T/C (dose: 11.0 mg/kg/injection, schedule: Q01DX009 (ip), vehicle: saline) was 113 % of control and the T/C (dose: 200.0 mg/kg/injection, schedule: Q01DX010 (ip), vehicle: saline) was 105 % of control.

With Nc1nccnc1N the T/C [2] was 110 % of control, the T/C [9] was 95 % of control and the T/C [10] was 115 % of control. For the same compound, the T/C [11] was 100 % of control, the T/C [12] was 120 % of control and the T/C [13] was 87 % of control.

In the case of CC(CCCc1ccccc1)(C(=O)O)C(=O)O, the T/C [17] is reported as 96 % of control, the T/C [18] is reported as 98 % of control and the T/C [19] is reported as 102 % of control.

With COc1ccc2[nH]c3c(c2c1)CCNC3CC(C)CCC=C(C)C (stereo unspecified) the T/C [2] was 93 % of control and the T/C [10] was 113 % of control.

With O=S(=O)(c1ccccc1CO)c1ccccc1CO the T/C [17] was 98 % of control, the T/C [18] was 95 % of control and the T/C [19] was 100 % of control.
